The source of these data is article PMC10465493, “Osteogenic induction of asiatic acid derivatives in human periodontal ligament stem cells” (Scientific Reports, 2023).

Data set [1] is described as follows: Aqueous solubility by gravimetric method. Type of data set: physicochemical. The conditions noted are these: thermodynamic from solid, ultrapure water, shaken 24 h, n = 6. As for the experimental part:
Aqueous solubility of AA and its derivatives were screened using a gravimetric method. Briefly, AA and the derivatives were dissolved in an excess amount in ultrapure water, and the samples were shaken at room temperature and 37 °C for 24 h. After that, the samples were centrifuged to separate the undissolved compounds. The specific volume of supernatants was then collected and lyophilised. The residual solid after lyophilisation was weighed using a 7-digit balance (XPR2u, Mettler Toledo, OH, USA), and the maximum solubility in water at the different temperature was calculated based on the volume of the collected solution of the compounds. […]

Data set [2] is described as follows: Cell viability, PrestoBlue resazurin assay. Type of data set: cell-based, human. The conditions noted are these: human, hPDLSCs, 300 nM; for viability at 24 h, 0.3 µM: day 1, general medium. As for the experimental part: (§1) Stock solutions of AA, 501, 502, 503, and 506 were prepared in DMSO at the concentration of 100 µM, before diluting in culture medium to the desired concentration. Cell viability after exposure to the drugs was investigated using a PrestoBlue™ resazurin assay according to the manufacturer’s protocol. Cells with a density of 60,000 cells/well were plated in 24 well-plates and cultured in a normal growth medium for 24 h. Then the cells were treated with 300 nM AA and solutions of, 501, 502, 503, and 506. After 24-h and 5-day incubation, the cultures were treated with resazurin working solution, and the fluorescence intensity at an emission wavelength of 590 nm was measured with excitation of 560-nm wavelength using a microplate reader (Synergy H1, Biotek multi-mode reader, Winooski, VT, USA). Untreated cells were used as the control, and the experiment was performed on different cell lines of at least five donors.
A general note: Alamar Blue is a resazurin reagent that responds to reducing activity.

The test system of data set [3] is hPDLSCs. Nature of the data set: Cell viability, PrestoBlue resazurin assay. As to conditions: 300 nM, up to 5 days. Type of data set: cell-based, human. As for the experimental part: as §1
Data set [4] concerns hPDLSCs. Nature of the data set: mRNA expression of osteogenic marker genes by quantitative RT-PCR. As to conditions: for mRNA expression of all markers (BMP2, RUNX2, COL1A1, WNT3A): 100 nM (10 nM for 503). In kind it is cell-based, human. The procedure: Cells were seeded in 24 well-plates at a density of 60,000 cells/well and treated with AA or the derivatives at different concentrations. The media was changed every other day to ensure the continuous activities of AA derivatives. For Erk inhibition experiments, cells were pretreated with 2.5 nM Erk inhibitor (cat. No. 328006, Calbiochem, San Diego, CA, USA) for 2 h prior to the treatment of AA derivatives. At each time point, the total RNA was extracted using TRIzol® reagent following the standard protocol, and the RNA content and purity were measured using a microvolume spectrophotometer (NanoDrop™ One, Thermo Fisher Scientific, USA). Then, 1 μg of RNA sample was reverse-transcribed into complementary DNA (cDNA) using Improm II reverse transcription system (Promega, USA). The expression levels of the target genes were detected by real-time polymerase chain reaction using the SYBR green detection system (FastStart Essential DNA Green Master, Roche Diagnostics, Switzerland) on the MiniOpticon™ RT-PCR system (Bio-Rad, USA). The quantitative RT-PCR was carried out using a LightCycler® 96 (Roche Diagnostics, Switzerland). The transcript expression of GAPDH was used as the internal control. The relative gene expression analysis was performed using the CFX Manager software (Bio-Rad, USA). The expression value was normalised using an expression value of cellular housekeeping gene, GAPDH, and the control was considered for each respective day.

The subject of a further data set is osteoclastogenesis. Further details: method as in PMID 32292339. As to conditions: cited from earlier work.
For data set [5] the following is noted: octanol/water, cited from earlier work.
The test system of data set [6] is hPDLSCs. Nature of the data set: BMP2 protein expression by ELISA. In kind it is cell-based, human. As to conditions: 100 to 300 nM, D1 and D3, general medium. As for the experimental part:
The expression levels of targeted proteins were analysed by a sandwich ELISA assay. Firstly, the cells were lysed, and the amount of protein was analysed using a Bio-Rad BCA protein assay kit (Bio‐Rad Laboratories, USA). Following the standard protocol, the target proteins were analysed using an ELISA kit (R&D Systems, USA).
For orientation: ELISA stands for enzyme-linked immunosorbent assay.

Data set [7] has as its system hPDLSCs. Nature of the data set: Alkaline phosphatase (ALP) activity assay. Type of data set: cell-based, human. The conditions noted are these: 100, 200, 300 nM, D3, normalised to total cellular protein. As for the experimental part: At the designated time points, the ALP activity was measured. Cells treated with different concentrations of AA derivatives were collected, washed with PBS, and lysed with alkaline lysis buffer. The cell lysate was incubated with a mixture containing 2 mg/mL p-nitrophenyl phosphate, 0.1 M 2-amino-2-methyl-1-propanol and 2 mM MgCl2. After incubation at 37 °C for 30 min, the reaction was terminated by addition of 50 mM NaOH. The absorbance at 410 nm was measured, and the quantitative data was normalised by the amount of total cellular protein.

For data set [8], the system named is hPDLSCs. Nature of the data set: Von Kossa and Alizarin red S staining for mineralisation. Type of data set: cell-based, human. As to conditions: 300 nM, 14 days, general medium, compared to osteogenic medium (positive control). As for the experimental part: In vitro mineralisation was visualised following calcium staining using Von Kossa’s method and Alizarin red S staining according to an established protocol. Briefly, on day 14, the cells were washed and fixed with cold methanol for 10 min before rinsing with deionised water. Von Kossa staining was performed by treating the fixed cells with 5%w/v silver nitrate solution for 30 min. For Alizarin Red S staining, the Alizarin Red S solution (0.5% w/v, pH 4.2) was incubated with the fixed cells for 5 min. The mineralised nodule formation was observed under a phase-contrast microscope (Nikon ECLIPSE Ts2, Nikon, USA). Cells cultured in a normal growth medium were used as the negative control. The cells cultured in an osteogenic medium (DMEM supplemented with […] ascorbic acid, 100 nM dexamethasone, and 10 mM β-glycerophosphate) were regarded as the positive control.

Where [9] appears, read: 37 °C, read-out: Experimental solubility in water at 37 °C (average ± SD).
Where [10] appears, read: room temperature, read-out: Experimental solubility in water at room temperature (average ± SD).
The mark [11] stands for this setting: 300 nM, days 1 and 3, general medium.

≈ marks a conversion by molar mass, not a printed value. Read-outs that look alike come from different tables or passages of the source.

A word on the solubility: it is the concentration that dissolves in the medium under given conditions. As a reminder, the viability is a read-out of living cells in per cent, often relative to untreated cells. `C[C@H]1[C@H](C)CC[C@]2(C(=O)O)CC[C@]3(C)C(=CC[C@@H]4[C@@]5(C)C[C@@H](O)[C@H](O)[C@@](C)(CO)[C@@H]5CC[C@]43C)[C@H]12` [AA, Asiatic acid]: the figures for the solubility at 24 h in data set [1] (setting [9]) and in data set [1] (setting [10]) were 723 ± 184 µg/mL (≈ 1480 µM) and 541 ± 76.8 µg/mL (≈ 1110 µM), respectively. Moreover, in data set [2], the viability at 24 h, 0.3 µM is more than 90%. Besides, the “Toxicity to hPDLSCs” value in the data set with hPDLSCs [3] is “no significant toxicity”. Moreover, the “mRNA expression of all markers (BMP2, RUNX2, COL1A1, WNT3A)” value (shortened to “mRNA expression of all markers”) with hPDLSCs [4] (24 h, normal growth medium) is listed as “no observable change”. Moreover, the “Concentration required to inhibit osteoclastogenesis or bone loss” value in the data set with osteoclastogenesis is “up to 20 µM”. In addition, the “Theoretical log P” value in data set [5] (ref 33) is on record as 5.8; in data set [5] (ref 38, 39) it was 5.7.
On to `CC(=O)OCC1(C)C(OC(C)=O)C(OC(C)=O)CC2(C)C1CCC1(C)C2CC=C2C3C(C)C(C)CCC3(C(=O)O)CCC21C` (stereo not drawn) [compound 501], for which the solubility at 24 h is 654 ± 95.5 µg/mL (≈ 1060 µM) in [1] (setting [9]) and 272 ± 31.5 µg/mL (≈ 442 µM) in data set [1] (setting [10]). Further, the viability at 5 days, 0.3 µM in [2] (day 5, general medium) was less than 75%. Further, the “mRNA expression of all markers” value in the data set on hPDLSCs [4] (24 h, normal growth medium) is recorded as “no observable change”.
Consider `CCCCOC(=O)C12CCC(C)C(C)C1C1=CCC3C4(C)CC(OC(C)=O)C(OC(C)=O)C(C)(COC(C)=O)C4CCC3(C)C1(C)CC2` (stereo not drawn) [compound 502], for which the figures for the solubility at 24 h in data set [1] (setting [9]) and in [1] (setting [10]) were 14.5 ± 4.7 µg/mL (≈ 21.6 µM) and 10 ± 1.5 µg/mL (≈ 14.9 µM), respectively.
As to `CC(=O)OC[C@@]1(C)C2CC[C@]3(C)C(CC=C4[C@@H]5[C@@H](C)[C@H](C)CC[C@]5(C(=O)NCCCN(C)C)CC[C@]43C)[C@@]2(C)C[C@@H](OC(C)=O)[C@@H]1OC(C)=O` (stereo partly drawn) [compound 503], the results for the solubility at 24 h in [1] (setting [9]) and in data set [1] (setting [10]) were 331 ± 82.6 µg/mL (≈ 473 µM) and 164 ± 28.2 µg/mL (≈ 235 µM), respectively. The viability at 24 h, 0.3 µM in data set [2] is less than 40%. For the same molecule, in the data set on hPDLSCs [4] (24 h, normal growth medium), the “mRNA expression of all markers” value is given as “no observable change”.
For `C[C@H]1[C@H](C)CC[C@]2(C(=O)NCCCN(C)C)CC[C@]3(C)C(=CCC4[C@@]5(C)C[C@@H](O)[C@H](O)[C@@](C)(CO)C5CC[C@]43C)[C@H]12` (stereo partly drawn) [compound 506], in data set [1] (setting [9]), the solubility at 24 h amounted to 852 ± 85.6 µg/mL (≈ 1490 µM). Further, in data set [1] (setting [10]), the solubility at 24 h came to 810 ± 36 µg/mL (≈ 1410 µM). Moreover, in the data set on hPDLSCs [3], the “Toxicity to hPDLSCs” value was “no significant toxicity”. In the data set with hPDLSCs [4] (100 nM, 24 h, normal growth medium), the “BMP2 mRNA expression” value is listed as “high expression”. In addition, the “WNT3A expression with Erk inhibitor” value in the data set with hPDLSCs [4] (300 nM 506, pretreated with Erk inhibitor, general medium) was “inhibited”. The BMP2 expression entry with hPDLSCs [4] (300 nM, day 1) is on record as “High expression”. In addition, in the data set with hPDLSCs [4] (300 nM, day 3), the BMP2 expression result is “declining to a control level” and the WNT3A transcript level entry is “elevated transcript level”. In the data set with hPDLSCs [4] (setting [11]), the COL1A1 expression level entry is reported as “no observable change” and the RUNX2 expression level entry is on record as “no observable change”. In the data set on hPDLSCs [4] (300 nM, general medium), the “ALP expression level compared to control” value is on record as “enhanced”, the “BMP2 expression level compared to control” value is recorded as “enhanced”, the “IBSP expression level compared to control” value was “enhanced” and the “OSX expression level compared to control” value is listed as “enhanced”. Also, the BMP2 gene expression entry in the data set with hPDLSCs [4] (100 to 300 nM, first day after exposure, general medium) is “elevated transcript level at the lower concentrations (100 and 200 nM)”. Also, in the data set on hPDLSCs [6], the BMP2 protein expression entry is on record as “dose-dependent increase”. The ALP activity result with hPDLSCs [7] was “dose-dependent increase”. In addition, the “Tissue mineralisation (calcium deposition)” value with hPDLSCs [8] is recorded as “comparable to those same cells cultured in an osteogenic medium”.
